The results in this text go back to patent publication US20120114576A1, “Method for preventing or treating yellowish discoloration of skin” (Shiseido Company, Ltd., priority 2010, published 2012).

In the test the target is T1, acellular dermis model (contracted collagen gel) (Bos taurus, UniProt P02453+P02465).
T1 construct: purchased Koken, Tokyo, Japan; host or cells: The gel was contracted by dermal fibroblasts, which were then destroyed by washing with de-ionized water
The test is described as follows: Experimental induction of yellowish change in acellular dermis model by carbonyl modification or glycation (colorimetry b*). The arrangement: species or system bovine. The note with it: 37° C.; for yellowish change of the dermal model (b*), long term treatment: 50 μM, 50 days, FIGS. 6 C and D; for yellowish change of the gel (b*): 9 days, FIGS. 6 A and B. The procedure: Skin color was measured by using a chromameter Konica-Minolta CM 2600d. The measurement of excised skin samples was performed by placing the skin samples on a white board. Data were expressed in the CIE L*a*b* color space, and the parameter b* was employed as a value for yellowish color.
A dermal equivalent model consisted of contracted collagen gel containing a trace amount of other extracellular matrix was prepared according to the method described by Tsunenaga et al. with a slight modification. Briefly, dermal fibroblasts (1×10^6 cells) were cultivated in 10 ml of Dulbecco's modified Eagle's medium supplemented with 10% fetal bovine serum and 0.3% acid-solubilized bovine type I collagen (Koken, Tokyo, Japan) in a petri dish of 60 mm diameter at 37° C. and 5% CO2. After 7 days of culture, a contracted collagen gel approximately 15 mm diameter was produced. Thereafter, this dermal equivalent model was extensively washed with serial changes of an excess amount of de-ionized water to destroy fibroblasts and to remove soluble materials.
The prepared acellular dermis model was incubated in 2.5 ml of an aqueous solution of chemical reagents, containing acrolein (50 μM to 10 mM) and 4-hydroxynonenal (4-HNE, 50 μM to 10 mM) for the carbonyl modification, and ribose (200 mM) and glyoxal (10 mM) for glycation. They were INCUBATED at 37° C. and the solutions were changed twice a week. Changes taking place in their color were monitored by colorimetry.
To confirm a link suspected between the carbonyl modification and the yellowish change of the dermis, the inventors examined the effect of experimentally produced carbonyl modification on the color of an acellular dermis model, and selected a contracted collagen gel as a dermis model, and treated it with acrolein or 4-HNE to induce carbonyl modification, or with d-ribose or glyoxal to induce glycation as a reference. […] Furthermore, a long term treatment of the dermis model with 50 μM acrolein or 50 μM 4-HNE, which were almost equivalent to those of the physiological concentrations in human tissue, also led to the yellowish colorization (FIGS. 6 C and D).

T1 sequence (P02453 162-1217 limits assumed): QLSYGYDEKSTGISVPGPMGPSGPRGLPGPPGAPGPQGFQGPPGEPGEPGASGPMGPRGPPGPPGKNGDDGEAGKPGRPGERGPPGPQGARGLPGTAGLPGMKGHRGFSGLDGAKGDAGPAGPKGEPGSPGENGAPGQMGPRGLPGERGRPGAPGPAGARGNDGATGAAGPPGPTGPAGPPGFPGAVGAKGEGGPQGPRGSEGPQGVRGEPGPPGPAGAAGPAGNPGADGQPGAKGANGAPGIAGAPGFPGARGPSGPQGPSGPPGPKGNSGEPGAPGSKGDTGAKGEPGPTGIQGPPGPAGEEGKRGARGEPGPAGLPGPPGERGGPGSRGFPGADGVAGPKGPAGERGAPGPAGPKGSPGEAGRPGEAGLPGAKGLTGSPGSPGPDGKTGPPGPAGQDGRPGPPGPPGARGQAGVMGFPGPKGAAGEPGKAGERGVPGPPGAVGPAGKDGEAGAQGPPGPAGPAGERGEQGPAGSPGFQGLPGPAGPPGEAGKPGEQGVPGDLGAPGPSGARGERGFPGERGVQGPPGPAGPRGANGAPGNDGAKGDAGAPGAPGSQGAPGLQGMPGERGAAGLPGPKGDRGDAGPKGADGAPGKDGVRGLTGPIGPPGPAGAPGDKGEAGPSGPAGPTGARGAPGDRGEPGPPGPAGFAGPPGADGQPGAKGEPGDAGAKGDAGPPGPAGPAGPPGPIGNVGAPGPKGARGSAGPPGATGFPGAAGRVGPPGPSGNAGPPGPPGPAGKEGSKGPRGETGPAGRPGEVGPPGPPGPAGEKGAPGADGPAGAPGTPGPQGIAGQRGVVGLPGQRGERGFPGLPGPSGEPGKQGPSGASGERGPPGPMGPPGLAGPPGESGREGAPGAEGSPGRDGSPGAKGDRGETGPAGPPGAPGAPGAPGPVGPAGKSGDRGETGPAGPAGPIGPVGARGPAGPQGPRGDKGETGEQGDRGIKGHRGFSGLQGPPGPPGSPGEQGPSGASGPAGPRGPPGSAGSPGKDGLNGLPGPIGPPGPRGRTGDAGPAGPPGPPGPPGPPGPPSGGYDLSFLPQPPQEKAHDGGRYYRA
T1 sequence (P02465 80-1117 limits assumed): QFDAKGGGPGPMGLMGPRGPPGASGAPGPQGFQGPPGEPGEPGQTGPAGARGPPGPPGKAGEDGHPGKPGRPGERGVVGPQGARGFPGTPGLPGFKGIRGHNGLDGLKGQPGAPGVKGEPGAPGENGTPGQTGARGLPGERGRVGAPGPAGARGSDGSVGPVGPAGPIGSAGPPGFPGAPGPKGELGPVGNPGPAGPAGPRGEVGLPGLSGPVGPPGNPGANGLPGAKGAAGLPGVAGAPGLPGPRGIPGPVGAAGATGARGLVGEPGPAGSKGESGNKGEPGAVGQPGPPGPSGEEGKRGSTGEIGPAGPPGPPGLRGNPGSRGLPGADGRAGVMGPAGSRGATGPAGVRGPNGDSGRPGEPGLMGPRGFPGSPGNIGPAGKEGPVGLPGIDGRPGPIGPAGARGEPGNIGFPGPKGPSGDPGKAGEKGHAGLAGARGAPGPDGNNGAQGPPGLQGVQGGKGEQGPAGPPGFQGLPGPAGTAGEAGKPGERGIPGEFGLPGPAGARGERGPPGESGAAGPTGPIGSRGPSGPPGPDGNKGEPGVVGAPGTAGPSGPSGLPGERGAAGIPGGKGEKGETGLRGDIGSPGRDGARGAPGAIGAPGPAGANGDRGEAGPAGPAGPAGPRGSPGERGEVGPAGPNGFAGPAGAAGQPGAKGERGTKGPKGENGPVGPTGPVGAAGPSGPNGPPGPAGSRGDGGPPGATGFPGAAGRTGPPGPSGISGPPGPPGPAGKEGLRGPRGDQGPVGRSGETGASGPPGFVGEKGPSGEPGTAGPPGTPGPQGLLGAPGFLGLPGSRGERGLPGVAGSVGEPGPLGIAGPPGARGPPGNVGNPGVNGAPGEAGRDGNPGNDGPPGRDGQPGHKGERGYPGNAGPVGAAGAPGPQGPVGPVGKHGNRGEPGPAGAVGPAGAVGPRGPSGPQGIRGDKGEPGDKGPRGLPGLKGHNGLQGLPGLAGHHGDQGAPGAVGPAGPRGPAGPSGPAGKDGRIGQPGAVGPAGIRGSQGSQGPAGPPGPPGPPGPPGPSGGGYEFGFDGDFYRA

As to `CCCCCC(O)/C=C/C=O` (stereo not drawn) [4-HNE, 4-hydroxynonenal], the “yellowish change of the dermal model (b*), long term treatment” value is listed as “reached the maximum in the first 10 days”. Also, the “yellowish change of the gel (b*)” value (10 mM) is “significant yellowish change”.

`C=CC=O` [acrolein]: the “yellowish change of the dermal model (b*), long term treatment” value is on record as “almost linear increase depending on the treatment period”. Besides, where the note is “10 mM”, the “yellowish change of the gel (b*)” value is “significant yellowish change”.

In the case of `O=C[C@H](O)[C@H](O)[C@H](O)CO` [d-ribose], the “yellowish change of the gel (b*)” value (200 mM) is “only a slight yellowish change”.

For `O=CC=O` [glyoxal], under “10 mM”, the “yellowish change of the gel (b*)” value is “only a slight yellowish change”.
